Reference: the NIST ThermoML archive (doi:10.1016/j.tca.2006.01.013)
± gives the expanded uncertainty stated by the source.

Details: 101.33 kPa, Liquid, Vibrating tube method

NCCN [ethane-1,2-diamine]
Details | mass density [kg/m3]
285.15 K | 904.27 ± 0.47
285.65 K | 903.81 ± 0.47
286.15 K | 903.34 ± 0.47
286.65 K | 902.87 ± 0.47
287.15 K | 902.41 ± 0.47
287.65 K | 901.94 ± 0.47
288.15 K | 901.47 ± 0.47
288.65 K | 901 ± 0.47
289.15 K | 900.53 ± 0.47
289.65 K | 900.07 ± 0.47
290.15 K | 899.6 ± 0.47
290.65 K | 899.13 ± 0.47
291.15 K | 898.66 ± 0.46
291.65 K | 898.19 ± 0.46
292.15 K | 897.72 ± 0.46
292.65 K | 897.25 ± 0.46
293.15 K | 896.78 ± 0.46
293.65 K | 896.31 ± 0.46
294.15 K | 895.85 ± 0.46
294.65 K | 895.38 ± 0.46
295.15 K | 894.91 ± 0.46
295.65 K | 894.44 ± 0.46
296.15 K | 893.97 ± 0.46
296.65 K | 893.5 ± 0.46
297.15 K | 893.03 ± 0.46
297.65 K | 892.56 ± 0.46
298.15 K | 892.09 ± 0.46
298.65 K | 891.62 ± 0.46
299.15 K | 891.14 ± 0.46
299.65 K | 890.67 ± 0.46
300.15 K | 890.2 ± 0.46
300.65 K | 889.73 ± 0.46
301.15 K | 889.26 ± 0.46
301.65 K | 888.79 ± 0.46
302.15 K | 888.32 ± 0.46
302.65 K | 887.85 ± 0.46
303.15 K | 887.38 ± 0.46
303.65 K | 886.9 ± 0.46
304.15 K | 886.43 ± 0.46
304.65 K | 885.96 ± 0.46
305.15 K | 885.49 ± 0.46
305.65 K | 885.02 ± 0.46
306.15 K | 884.54 ± 0.46
306.65 K | 884.07 ± 0.46
307.15 K | 883.6 ± 0.46
307.65 K | 883.12 ± 0.46
308.15 K | 882.65 ± 0.46
308.65 K | 882.18 ± 0.46
309.15 K | 881.7 ± 0.46
309.65 K | 881.23 ± 0.46
310.15 K | 880.76 ± 0.46
310.65 K | 880.28 ± 0.46
311.15 K | 879.81 ± 0.46
311.65 K | 879.33 ± 0.46
312.15 K | 878.86 ± 0.46
312.65 K | 878.38 ± 0.46
313.15 K | 877.91 ± 0.46
313.65 K | 877.44 ± 0.46
314.15 K | 876.96 ± 0.46
314.65 K | 876.48 ± 0.46
315.15 K | 876.01 ± 0.46
315.65 K | 875.53 ± 0.46
316.15 K | 875.06 ± 0.46
316.65 K | 874.58 ± 0.46
317.15 K | 874.11 ± 0.46
317.65 K | 873.63 ± 0.46
318.15 K | 873.15 ± 0.46
318.65 K | 872.68 ± 0.46
319.15 K | 872.2 ± 0.46
319.65 K | 871.72 ± 0.46
320.15 K | 871.25 ± 0.45
320.65 K | 870.77 ± 0.45
321.15 K | 870.29 ± 0.45
321.65 K | 869.81 ± 0.45
322.15 K | 869.34 ± 0.45
322.65 K | 868.86 ± 0.45
323.15 K | 868.38 ± 0.45
323.65 K | 867.9 ± 0.45
324.15 K | 867.42 ± 0.45
324.65 K | 866.94 ± 0.45
325.15 K | 866.47 ± 0.45
325.65 K | 865.99 ± 0.45
326.15 K | 865.51 ± 0.45
326.65 K | 865.03 ± 0.45
327.15 K | 864.55 ± 0.45
327.65 K | 864.07 ± 0.45
328.15 K | 863.59 ± 0.45
328.65 K | 863.11 ± 0.45
329.15 K | 862.63 ± 0.45
329.65 K | 862.14 ± 0.45
330.15 K | 861.66 ± 0.45
330.65 K | 861.18 ± 0.45
331.15 K | 860.7 ± 0.45
331.65 K | 860.22 ± 0.45
332.15 K | 859.74 ± 0.45
332.65 K | 859.25 ± 0.45
333.15 K | 858.77 ± 0.45
333.65 K | 858.29 ± 0.45
334.15 K | 857.81 ± 0.45
334.65 K | 857.32 ± 0.45
335.15 K | 856.84 ± 0.45
335.65 K | 856.36 ± 0.45
336.15 K | 855.87 ± 0.45
336.65 K | 855.39 ± 0.45
337.15 K | 854.91 ± 0.45
337.65 K | 854.42 ± 0.45
338.15 K | 853.93 ± 0.45
338.65 K | 853.45 ± 0.45
339.15 K | 852.96 ± 0.45
339.65 K | 852.48 ± 0.45
340.15 K | 851.99 ± 0.45
340.65 K | 851.51 ± 0.45
341.15 K | 851.02 ± 0.45
341.65 K | 850.53 ± 0.45
342.15 K | 850.05 ± 0.45
342.65 K | 849.56 ± 0.45
343.15 K | 849.07 ± 0.45
343.65 K | 848.58 ± 0.45
344.15 K | 848.1 ± 0.45
344.65 K | 847.61 ± 0.45
345.15 K | 847.12 ± 0.45
345.65 K | 846.63 ± 0.45
346.15 K | 846.14 ± 0.45
346.65 K | 845.66 ± 0.45
347.15 K | 845.17 ± 0.45
347.65 K | 844.68 ± 0.45
348.15 K | 844.19 ± 0.45
348.65 K | 843.7 ± 0.45
349.15 K | 843.21 ± 0.45
349.65 K | 842.72 ± 0.45
350.15 K | 842.23 ± 0.45
350.65 K | 841.75 ± 0.45
351.15 K | 841.26 ± 0.45
351.65 K | 840.76 ± 0.44
352.15 K | 840.27 ± 0.44
352.65 K | 839.78 ± 0.44
353.15 K | 839.29 ± 0.44
353.65 K | 838.8 ± 0.44
354.15 K | 838.31 ± 0.44
354.65 K | 837.81 ± 0.44
355.14 K | 837.32 ± 0.44
355.65 K | 836.83 ± 0.44
356.15 K | 836.33 ± 0.44
356.64 K | 835.84 ± 0.44
357.15 K | 835.35 ± 0.44
357.65 K | 834.85 ± 0.44
358.14 K | 834.36 ± 0.44
358.64 K | 833.86 ± 0.44
359.14 K | 833.37 ± 0.44
359.64 K | 832.87 ± 0.44
360.14 K | 832.38 ± 0.44
360.64 K | 831.88 ± 0.44
361.14 K | 831.38 ± 0.44
361.65 K | 830.89 ± 0.44
362.15 K | 830.39 ± 0.44
362.65 K | 829.89 ± 0.44
363.15 K | 829.4 ± 0.44
